Measured values from US8946436B2, “Oxazolidinone compounds and their uses in preparation of antibiotics” (Sichuan Gooddoctor Pharmaceutical Group Co., Ltd., priority 2011, dated 2015).
Values after ≈ are worked out from the molar mass of the structure shown. Where two headings read alike, the source gives them in different places.

What was measured:
Assay type in all cases: cell-based
S. agalactiae = assay: In vitro antibacterial activity (MIC), S. agalactiae; details: S. agalactiae (5 strains)
Method: The test strain was inoculated into the liquid medium and cultured at 37° C. for 16-18 h. The culture liquid and MH medium were put into two blank wells of a 96-well plate, respectively. Then, the absorptions thereof were measured by a Microplate reader. The difference between the absorption values of the culture liquid and MH medium is the adsorption of the bacteria. The concentration of the culture liquid can be calculated according to the formula of 1OD=50 million CFU/mL. The culture liquid was diluted with the MH bouillon culture medium to 5000 CFU/mL for further use.
Compounds 12a, 13 and 14 were dissolved in DMSO to 1 mg/mL, and then filtered with a 0.22 μm filter to obtain the compound solutions. And then they were gradually diluted to a desired concentration (10× final concentration) with the liquid medium, so as to obtain a series of dilutions. The final concentration grade of the dilutions of each tested compound consists of 14 concentrations, which includes: 0.03125 μg/mL, […], 0.125 μg/mL, 0.25 μg/mL, […], 1 μg/mL, 2 μg/mL, 4 μg/mL, 8 μg/mL, 16 μg/mL, 32 μg/mL, 64 μg/mL, 128 μg/mL and 256 μg/mL.
10 μL of each of the compound dilutions above was added into a well of a 96-well plate. 90 μL of the culture liquid (5000 CFU/mL) was added into each of the wells, respectively, mixed with the dilutions to render the tested compound concentration to the final concentration. The resulted mixture was incubated at 37° C. for 16-18 h, and then the OD630 thereof was measured. A culture liquid free of the tested compounds is used as a blank control, and three parallel tests with the same concentration of each compound were performed. The minimum inhibitory concentration (MIC) of each compound on the standard strain of Staphylococcus Aureus and other test strains was determined. Specifically, among the culture liquid contained in the wells of the micro-plate, the first three lowest concentrations under which growth of the test strains could be observed were chose for further evaluation of the MIC. A culture liquid free of tested compounds was used as a blank control. Each of the culture liquids was homogenized independently, and then was diluted with a sterile saline. Each of the diluted culture liquids was plated onto a MH bouillon plate and incubated at 37° C. for 20 h in incubator. After the incubation, the number of the colonies on each plate was counted. As compared with the blank control group, the lowest concentration of each of the test compound groups, at which 80% reduction in the colony number of the strains was achieved, was recorded as the MIC.

Streptococcus pyogenes = assay: MIC against clinically isolated strains, Streptococcus pyogenes; parameters: MICmode / MICrange: unit not given here; details: Streptococcus pyogenes (15 strains)
Description: (§1) Standard strains, including Staphylococcus aureus ATCC29213, S. pneumoniae ATCC49619, E. faecalis ATCC29212, are all available from the American Type Culture Collection.
(§2) Clinically isolated strains: There are total 120 clinical strains of gram-positive bacterium including: 37 strains of Staphylococcus aureus (consisting of 14 strains of methicillin sensitive Staphylococcus aureus MSSA and 23 strains of methicillin resistant Staphylococcus aureus MRSA); 27 strains of Streptococcus pneumoniae (consisting of 13 strains of penicillin sensitive Streptococcus pneumoniae PSSP and 14 strains of penicillin insensitive or resistant Streptococcus pneumoniae PISP+PRSP); 15 strains of Streptococcus pyogenes; 17 strains of Streptococcus agalactiae; 24 stains of Enterococcus faecium (consisting of 12 strains of vancomycin sensitive Enterococcus faecium and 12 strains of vancomycin resistant Enterococcus faecium).
(§3) (2) Tested compounds: Compound 13f was prepared by the methods above, with potency of over 98%; Linezolid was purchased from Pfizer, with potency of 100%.
(§4) Staphylococcus and Enterococcus faecium were incubated in Mueller-Hinton agar medium (MHA medium) at 35° C. for 16-20 h; S. pneumoniae was incubated in Cation-Adjusted Mueller-Hinton Broth medium (CAMHB medium) supplemented with 2.5-5.5% (v/v) lysed horse blood (LHB) at 35° C. for 20-24 h; and Streptococcus were incubated in sheep blood-containing medium (prepared by addition of 5% defibrinated sheep blood into MHA media) at 35° C. for 20-24 h in 5% CO2 environment (CO2 incubator). Before test of the compound activity, each stock of the bacteria strains was activated and colonized in the following manner: the stock was transferred and cultured in a liquid culture medium, the culture liquid was smeared onto an agar plate with an inoculating loop to obtain bacterial colonies on the plate after incubation, and then a colony of the bacteria was chose to be suspended into the liquid culture medium for performing the test of compound activity. As a result, fresh bacteria cells were applied to the test. The standard strains were used as sensitive bacterium to control the quality of the experiments, and a plate or tube containing no antibacterial compounds is used as a blank control for the growth of test strains.
The minimal inhibitory concentration (MIC) of the test compounds on the strains of Streptococcus pneumoniae was determined by a standard broth macrodilution method, while the MIC of the test compounds on the other bacteria stains was determined by standard agar double dilution methods. […] The MIC of the test compound to each strain of the bacteria was determined.

Streptococcus agalactiae = assay: MIC against clinically isolated strains, Streptococcus agalactiae; details: Streptococcus agalactiae (17 strains)
Description: as §1, §2, §3, §4
(§5) The minimal inhibitory concentration (MIC) of the test compounds on the strains of Streptococcus pneumoniae was determined by a standard broth macrodilution method, while the MIC of the test compounds on the other bacteria stains was determined by standard agar double dilution methods. The concentration of the test compounds was in the range of 32 mg/L-0.016 mg/L. The bacterial suspensions to be tested were inoculated by a multipoint inoculator, and the inoculation amount at each point is 10^4 CFU. The MIC of the test compound to each strain of the bacteria was determined.

[1] = tested on: Enterococcus faecium-resistant vancomycin; assay: MIC against clinically isolated strains, vancomycin resistant Enterococcus faecium; details: Enterococcus faecium-resistant vancomycin (12 strains)
Description: as §1, §2, §3, §4, §5

L-02 = assay: Cytotoxicity experiment (MTT), L-02; details: L-02 normal cells
Method: (1) Inoculating cells: Experimental cells in the growth of logarithmic phase were collected and suspended. The cell concentration of the suspension was adjusted so that they could be inoculated into the wells of 96-well micro plate at a density between 10^3-10^4 cells per well (200 μl per well). (2) Culturing cells: The cells were cultured at normal conditions for 3 days and then exposed to 50 uM compounds for test. (3) Coloring reaction: At 24 h, 48 h and 72 h after the cells being exposed to the compounds for test, 200 μl culture medium containing 20 μl MTT solution (5 mg/ml) was added into each well, and the well was further incubated at 37° C. for 2 hours to terminate the incubation. After the incubation, the supernatants were removed from the wells. In the event there were suspended cells in the wells, centrifugation should be performed before removal of supernatant from the wells. After the removal, 150 μl DMSO was added to each well and mixed thoroughly by agitation for 10 mins to fully dissolve crystals. (4) Ascertainment of colorimetry: The absorbance value at 490 nm of each well was determined by Enzyme-linked immunosorbent Monitor. The growth curve of the experimental cells was plotted by taking time as x-coordinate and absorbance value as y-coordinate. In addition, an inhibition ratio could be calculated in accordance with the following formula: Inhibition ratio=(absorbance value of control group-absorbance value of administering group)/absorbance value of control group×100%.

Row | Compound | MIC (S. agalactiae; Streptococcus agalactiae, read-out: MIC) | MIC50 (Streptococcus pyogenes) | MIC90 (Streptococcus pyogenes) | MICmode (Streptococcus pyogenes) | MICrange (Streptococcus pyogenes) | MICmode (Streptococcus agalactiae) | MICrange (Streptococcus agalactiae) | MICmode [1] | MICrange [1] | cytotoxicity at 50 µM (L-02; Homo sapiens, L02, 48 h, read-out: Inhibition ratio) | MIC (S. agalactiae) | MIC50 (Streptococcus agalactiae) | MIC90 (Streptococcus agalactiae) | MIC50 [1] | MIC90 [1] | Inhibition ratio (L-02; 50 uM, 48 h)
1 | CC(=O)NC[C@H]1CN(c2ccc(-n3cc(-c4ccccn4)cn3)c(F)c2)C(=O)O1 [Compound 13f, (S)-N-((3-(3-fluoro-4-(4-(pyridin-2-yl)-1H-pyrazol-1-yl)phenyl)-2-oxooxazolidin-5-yl)methyl)acetamide] | 250 to 2000 ng/mL (≈ 632 to 5060 nM) | 0.25 ng/mL (≈ 0.632 nM) | 0.5 ng/mL (≈ 1.26 nM) | 0.25 | 0.25-0.5 | 1 µg/L | 0.5 to 1 µg/L | 1 µg/L | 1 to 2 µg/L | 2.74% |  |  |  |  |  | 
2 | CC(=O)NC[C@H]1CN(c2ccc(N3CCOCC3)c(F)c2)C(=O)O1 [Linezolid, reference compound] |  |  |  |  |  | 1 µg/L | 0.5 to 1 µg/L | 1 µg/L | 1 to 2 µg/L |  | 4000 to 32000 ng/mL | 1 ng/mL (≈ 2.96 nM) | 1 ng/mL (≈ 2.96 nM) | 1 ng/mL (≈ 2.96 nM) | 1 ng/mL (≈ 2.96 nM) | >50%
